A word on the inhibition: it is the relative decrease from the control value, in per cent. As a reminder, the pIC50 is −log10 of the IC50, conventionally taken in molar units.

pIC50: −log10 of the molar value. Several values for one entry are separate records, joined by “and”; a condition that tells them apart may be missing. Equal values may be shown once. Read-outs that look alike come from different tables or passages of the source.

The values below come from paper PMC9502466, “Identification of SARS-CoV-2 Main Protease Inhibitors from a Library of Minor Cannabinoids by Biochemical Inhibition Assay and Surface Plasmon Resonance Characterized Binding Affinity” (Molecules, 2022).

For assay [1], the target named is T1, SARS-CoV-2 M^pro (Severe acute respiratory syndrome coronavirus 2, UniProt P0DTD1). The experiment in a line: biochemical. The settings on record: for inhibition at 10 µM: read-out: inhibition rate of SARS-CoV-2 M^pro activity, 10 μM; for pIC50: IC50.
Assay [2] relates to pseudovirus expressing the SARS-CoV-2 spike protein. The following applies: cited from earlier work.
The target in assay [3] is T1, SARS-CoV-2 M^pro. More on the design: method as in PMID 33290767. The settings on record: in vitro, cited from earlier work.

Regarding “11-nor-Δ^8-tetrahydrocannabinol-9-Carboxylic acid [11-OH-THC]”, the “inhibition rate of SARS-CoV-2 M^pro activity” value (from here on “inhibition rate”) in assay [1] (10 µM) came out at 56.0%.

As for `C=C(C)[C@@H]1C[C@H](O)C(C)=C[C@H]1c1c(O)cc(CCCCC)cc1O` [6α-OH-CBD, 6α-hydroxy cannabidiol], in assay [1], the inhibition at 10 µM turned out to be 14.7%.

With `CCCCCc1cc(O)c2c(c1)OC(C)(CCC=C(C)C)C=C2` (centres unmarked) [CBC, cannabichromene], the inhibition at 10 µM in assay [1] was 42.1%.

With `CCCCCc1cc2c(c(O)c1C(=O)O)C=CC(C)(CCC=C(C)C)O2` (centres unmarked) [CBCA, cannabichromenic acid], the inhibition at 10 µM in assay [1] is less than 10%.

Regarding `CCCc1cc2c(c(O)c1C(=O)O)C=CC(C)(CCC=C(C)C)O2` (centres unmarked) [CBCVA, cannabichromevarinic acid], the inhibition at 10 µM in assay [1] is less than 10%.

For the compound `C=C(C)[C@@H]1CCC(C)=C[C@H]1c1c(O)cc(CCCCC)cc1O` [CBD, cannabidiol, reference compound], in assay [1], the inhibition at 50 µM came to 13.2%, the inhibition at 250 µM turned out to be 23% and the inhibition at 10 µM was 8.74%.

Consider `C=C(C)[C@@H]1CCC(C)=C[C@H]1c1c(O)cc(CCCCC)c(C(=O)O)c1O` [CBDA, cannabidiolic acid], for which the inhibition at 2 µM in assay [1] (2 μM) amounted to 11.9%. In assay [1], the inhibition at 50 µM was 84.8%, the inhibition at 250 µM turned out to be 101% and the inhibition at 10 µM stood at 29.4%. Also, the “effect on pseudovirus infection (in words)” value in assay [2] is on record as “block the infection”.

Consider `C=C(C)[C@@H]1CCC(C)=C[C@H]1c1c(O)cc(CCCCC)c(C(=O)OC)c1O` [CBDAME, cannabidiolic acid methyl ester], for which, in assay [1], the inhibition at 10 µM stood at 13.7%.

Regarding `C=C(C)[C@@H]1CCC(C)=C[C@H]1c1c(O)cc(CCCC)cc1O` [CBDB, cannabidibutol], the inhibition at 10 µM in assay [1] worked out at 19.4%.

Regarding `C=C(C)[C@@H]1CCC(C)=C[C@H]1c1c(O)cc(CCCCCCC)cc1O` [CBDP, cannabidiphorol], the inhibition at 10 µM in assay [1] turned out to be 6.55%.

For `C=C(C)[C@@H]1CCC(C)=C[C@H]1c1c(O)cc(CCC)cc1O` [CBDV, cannabidivarin], the inhibition at 10 µM in assay [1] was 6.87%.

Consider `CCCCCc1cc(O)c(C/C=C(\C)CCC=C(C)C)c(O)c1` [CBG, cannabigerol], for which the inhibition at 10 µM in assay [1] amounted to 25.4%.

Consider `CCCCCc1cc(O)c(C/C=C(\C)CCC=C(C)C)c(O)c1C(=O)O` [CBGA, cannabigerolic acid], for which the “inhibition rate” value in assay [1] (10 μM) is reported as more than 70%. In assay [1] (12.5 μM), the inhibition at 12.5 µM is 6%. Moreover, the inhibition at 25 µM in assay [1] (25 μM) was 8%. Further, in assay [1], the inhibition at 50 µM was 18.5%; the inhibition at 250 µM was found to be 72.9%; the pIC50 is 4.84 and 4.68; the inhibition at 10 µM came out at 72.9%. In assay [1] (100 μM), the inhibition at 100 µM was found to be 18.2%. Also, in assay [2], the “effect on pseudovirus infection (in words)” value was “block the infection”.

Turning to `CCCCCc1cc(O)c2c(c1)OC1(C)CCC3C1C2C3(C)C` (centres unmarked) [CBL, cannabicyclol], in assay [1], the inhibition at 10 µM is 31.1%.

For the compound `CCCCCc1cc(O)c2c(c1)OC(C)(C)c1ccc(C)cc1-2` [CBN, cannabinol], in assay [3], the pIC50 is 5.10. In addition, the inhibition at 10 µM in assay [1] came out at 28.7%.

For `C=C(C)c1ccc(C)cc1-c1c(O)cc(CCCCC)cc1O` [CBND, cannabinodiol], the inhibition at 10 µM in assay [1] was less than 10%.

For the compound `CCCCCc1cc2c3c(c1)OC(C)(C)C1CCC(C)(CC31)O2` (centres unmarked) [CBT, cannabicitran], in assay [1], the inhibition at 10 µM is less than 10%.

`O=C[C@H](C[C@@H]1CCNC1=O)NC(=O)[C@H](Cc1cccc(F)c1)NC(=O)c1cc2ccccc2[nH]1` [M^pro 11b, reference compound]: the “inhibition rate” value in assay [1] (10 µM) was more than 98%.

As for `Cc1cc(C(=O)N[C@@H](C)C(=O)N[C@H](C(=O)N[C@@H](CC(C)C)C(=O)N[C@H](/C=C/C(=O)OCc2ccccc2)C[C@@H]2CCNC2=O)C(C)C)no1` [M^pro N3, reference compound], the “inhibition rate” value in assay [1] (10 µM) is more than 98%.

Take `CCCCc1cc(O)c2c(c1)OC(C)(C)[C@@H]1CCC(C)=C[C@@H]21` [THCB, Δ^9-tetrahydrocannabibutol]: the “inhibition rate” value in assay [1] (10 μM) is more than 70%. Besides, in assay [1], the pIC50 is 5.44 and the inhibition at 10 µM turned out to be 81%.

On to `CCCCCc1cc(O)c2c(c1)OC(C)(C)[C@@H]1CCC(C)=C[C@@H]21` [Δ^9-THC, Δ^9-tetrahydrocannabinol, reference compound], for which, in assay [3] (read-out: IC50), the pIC50 was 4.99.
